{"source": "paper PMC4671318", "about": "(Proteins, 2012)", "target": "human aldose reductase (AR) (Homo sapiens, UniProt P15121)", "experiment": "X-ray crystallography", "assay_type": "biochemical", "data": [{"smiles": "O=C(O)COc1cc(F)ccc1C(=S)NCc1ccc(Br)cc1F", "note": "[compound 594, IDD594]", "values": [{"measurement": "IC50", "value": "124 ± 10", "unit": "nM"}]}]}
